According to patent US10934346B2, “Modified T cell comprising a polynucleotide encoding an inducible stimulating molecule comprising MyD88, CD40 and FKBP12” (priority 2014, dated 2021):
“Also recorded” adds a separate entry of the source. Where two headings read alike, the source gives them in different places.

Key:
[1] = test system: cells; test: Amount of AP1903 needed in vitro for effective signaling of cells; format: cell-based
Procedure: The fixed dose of AP1903 for injection used, for example, may be 0.4 mg/kg intravenously infused over 2 hours. The amount of AP1903 needed in vitro for effective signaling of cells is about 10-100 nM (MW: 1412 Da). This equates to 14-140 μg/L or ˜0.014-0.14 mg/kg ([…]). The dosage may vary according to the application, and may, in certain examples, be more in the range of 0.1-10 nM, or in the range of 50-150 nM, 10-200 nM, 75-125 nM, 100-500 nM, 100-600 nM, 100-700 nM, 100-800 nM, or 100-900 nM. Doses up to 1 mg/kg were well-tolerated in the Phase I study of AP1903 described above.

[2] = test system: primary T cells; test: Activation of primary T cells with iMyD88, iCD40 or iMC after AP1903 (cytokine ELISA); conditions: iMC
Procedure: To examine whether MyD88, CD40 or both molecules should be included as endodomains in potential chimeric antigen receptor constructs, four distinct vectors were designed containing the AP1903-binding domains only (Fv′Fv), or genetically fused with MyD88 (iMyD88), CD40 (iCD40) or with both MyD88 and CD40 (iMC) (FIG. 41a). […] The ability of iMyD88, iCD40 or iMC to activate T cells following exposure to AP1903 by measuring IFN-γ and IL-6 production by ELISA was then assayed.
A set of experiments was performed to examine whether MyD88, CD40 or both components were required for optimum T cell stimulation using the iMC molecule.

[3] = test system: CAPAN-1 GFP+ tumor cells; test: Co-culture of iMC-enabled T cells with CAPAN-1-GFP tumor cells; format: cell-based, human; conditions: 10 nM AP1903, 5:1 T cells to tumor cells, 72 hours, RV-172 T cells
Procedure: FIG. 53 Activation of iMC-transduced T cells with AP1903 induces T cell killing of tumor cells. […] Co-cultures were cultured with or without 10 nM AP1903. After 72 hours, co-cultures were analyzed for GFP^+ tumor cells (X-axis) by flow cytometry.
FIG. 55: Activation of iMC-transduced T cells with AP1903 induces T cell killing of tumor cells. […] Co-cultures were cultured with or without 10 nM AP1903. After 72 hours, co-cultures were analyzed for GFP^+ tumor cells by flow cytometry (n=2).
FIG. 56: Activation of iMC-transduced T cells with AP1903 induces T cell killing of tumor cells. […] Co-cultures were cultured with or without 10 nM AP1903.
3. Non-transduced T cells or cells transduced with RV-171 (control vector) or RV-172 (iMC vector) were cultured at a 5:1 ratio of T cells to tumor cells in media supplemented with 50 U/ml IL-2, and either with or without 10 nM AP1903. Co-cultures were then incubated at 37° C. and 5% CO2 for 72 hours. Cultures were subsequently analyzed for the presence of GFP^+ tumor cells by fluorescent microscopy and by harvesting the cultures with 0.25% trypsin/EDTA and measuring the frequency of GFP^+CD3^− tumor cells in the culture by flow cytometry.

[4] = test system: iMC-modified T cells; test: Titration of rimiducid on iMC-transduced T cells (T cell activation); format: cell-based, human
From the text: Cytokine and chemokine production. […] CAR and iMC signaling.

[5] = test system: BLK CL4 fibroblasts; test: IL-6 ELISA of adenovirus-transduced BLK CL4 fibroblasts with AP1903; format: cell-based; conditions: 100 nM AP1903
Procedure: BLK.CL4 fibroblasts were cultured at 175,000 cells/ml/well in 24-well plates. Adenoviruses were added at 6000, 12000, 18000, 24000 and 30000 virus/cell ratio and cells were incubated for 24 hours. Then, 100 nM of AP1903 was added to all the wells, and the following day cells and culture supernatants were harvested. A. Cells were labeled with anti-human PSMA antibody, LNI-17, (Biolegend, San Diego, Calif.) and PSMA expression was analyzed by flow cytometry. Represented is the percentage of PSMA^+ cells when compared to non-transduced cells. B. IL-6 was evaluated from the culture supernatants by ELISA (e-Bioscience, San Diego, Calif.). For FIG. 31, BLK.CL4 fibroblasts were cultured at 350,000 cells/well in 6-well plates. Adenoviruses were added at 20,000 v.p./cell ratio and cells were incubated for 24 hours. Then, 100 nM of AP1903 was added, and the following day culture supernatants were harvested. IL-6 was evaluated from the culture supernatants by ELISA (e-Bioscience, San Diego, Calif.).

[6] = cited from earlier work

CC[C@H](C(=O)N1CCCC[C@H]1C(=O)O[C@H](CCc1ccc(OC)c(OC)c1)c1cccc(OCC(=O)NCCNC(=O)COc2cccc([C@@H](CCc3ccc(OC)c(OC)c3)OC(=O)[C@@H]3CCCCN3C(=O)[C@@H](CC)c3cc(OC)c(OC)c(OC)c3)c2)c1)c1cc(OC)c(OC)c(OC)c1 (relative stereo) [rimiducid, 2-Piperidinecarboxylic acid, 1-[(2S)-1-oxo-2-(3,4,5-trimethoxyphenyl)butyl]-, 1,2-ethanediylbis [imino(2-oxo-2,1-ethanediyl)oxy-3,1-phenylene[(1R)-3-(3,4-Dimethoxyphenyl)propylidene]] ester, [2S-[1(R*),2R*[S*[S*[1(R*),2R*]]]]]-(9Cl)]
amount needed in vitro for effective signaling of cells [1]: 10 to 100 nM
amount needed for effective signaling, converted ([1]; MW: 1412 Da): 14 to 140 µg/L
IL-1 secretion [2]: IL-1a and β are secreted
GFP+ tumor cells remaining [3]: elimination of GFP^+ tumor cells; also recorded: showed very few viable GFP^+ tumor cells
EC50 ([4]; Homo sapiens, T-cell, FIG. 1b, read-out: EC50, activation of T cells through the iMC switch): ~0.12 nM
activation of iMC-transduced T cells ([4]; […]): dose-dependent activation
IL-6 production [5]: response to AP1903 by producing IL-6
plasma levels versus dose ([6]; 0.01, 0.05, 0.1, 0.5 and 1.0 mg/kg): directly proportional to dose
plasma level as % of maximal concentration ([6]; 0.5 hours post-dose): approximately 18%
plasma level as % of maximal concentration ([6]; 2 hours post-dose): ~7%
plasma level as % of maximal concentration ([6]; 10 hours post-dose): ~1%
well-tolerated doses ([6]; Phase I study): up to 1 mg/kg
mean Cmax ([6]; plasma, over the 0.01-1.0 mg/kg dose range, infused IV over 2 hours): 10 to 1275 ng/mL
